Some results are limits rather than exact numbers.

One may read the melting point as the temperature of the solid-liquid transition. As for `COc1cc(OC)c2c(=O)nc(-c3cc(C)c(O)c(C)c3)n(C)c2c1`, the melting point lay within 188 to 189 °C. As for `COc1ccc(S(=O)(=O)N(Cc2cccnc2)C(C(N)=O)C(C)C)cc1` (configuration not stated), the figure is 45 to 53 °C. As for `O=C(O)CCCOc1cc(-c2ccccc2)nc2ccccc12`, the figure is 264 °C; as for `COc1ccc2c(c1)CCC1C2CCC2(C)C(=O)CC(C)(C(C)C)C12` (configuration not stated), 113 to 115 °C.

Molecule `CCC1(C)CCNC1=O` (configuration not stated) had a melting point of 39 to 40 °C.

The molecule `CCc1cc(-c2nc3ccccc3s2)ccc1N` had a melting point of 118 to 120 °C.

For the molecule `c1ccc2c(c1)Sc1ccccc1C1=C2CCNCC1`, the melting point is 142 to 143 °C. The molecule `O=C(O)CC1CCC2(CC1)OCCO2` registered a melting point of 110 to 113 °C.

With `COc1ccccc1-c1cc2cnc(N)nc2nc1NC(=O)NC(C)(C)C`, the melting point was 300 to 301 °C. The same measure for `CCCCCCC(C)(C)c1cc(O)cc(O)c1`: 93 to 95 °C; for `CN1C(=O)C2CC(c3ccc(N)cc3)(C2)C1=O`: 197 to 198 °C. Consider `CNc1nc(-c2cccc(NC(=O)c3ccc(OC)c(OC4CCCC4)c3)c2)c2cc(OC)c(OC)cc2n1`, for which the melting point was 129 to 131 °C. The same measure for `O=Cc1cc2ccccc2c(-c2ccc(I)cc2)n1`: 243 to 245 °C. As for `O=C(Cn1c(=O)sc2ccc(Cl)cc21)N1CCC(O)CC1`, the figure is 180 °C; as for `Cc1ccccc1-c1nc(-c2ccc(Cl)cc2)n[nH]1`, 150 to 151 °C; as for `COc1ccc2oc(C(N)=O)c(-c3nnn[nH]3)c2c1`, 205 °C. The same measure for `O=C(OC1CCN(c2ncc(-c3ccccc3Cl)cn2)CC1)N1CCC(O)CC1`: 124 to 126 °C; for `C#CCOc1cc(-n2c(OC)nc(C(F)(F)F)cc2=O)c(F)cc1Cl`: 108 to 110 °C.

`CC(=O)Nc1ccccc1S(=O)(=O)NCCN1[C@H](C)Cc2ccsc2[C@@H]1C` (relative stereo): the melting point lay in the range of 104 to 109 °C.

For `CNc1nc(C)c(C(=O)c2ccc(Cl)c([N+](=O)[O-])c2)s1`, the melting point lay within 220 to 232 °C. In turn, `COc1cccc(C(O)C(C)(C)NC(=O)Cc2ccc(OC)c(OC)c2)c1` (configuration not stated) yielded a melting point of 137 to 138 °C. As for `C=CCn1c(=O)n(CC=C)c(=O)n(-c2cc(N3C(=O)C4=C(CCCC4)C3=O)c(F)cc2Cl)c1=O`, the figure is 80 to 85 °C. The same measure for `COc1ccc(COc2ccc(C=C(C=O)C(C=O)=Cc3ccc(OCc4ccc(OC)cc4)cc3)cc2)cc1`: 218 to 220 °C; for `COc1ccc(CCN(C)CCCC(C#N)(C(=O)OC(C)C)c2ccc(OC)c(OC)c2)cc1OC` (configuration not stated): 66 to 67 °C.

`O=C1C(=O)c2ccccc2C2=C1SCC1(CCN(CC(O)COCc3ccco3)CC1)O2` (configuration not stated) registered a melting point of 143 to 145 °C. As for `c1ccc(-n2nnnc2OCC2CO2)cc1` (configuration not stated), the figure is 77 to 81 °C; as for `CN1CCN(c2ccc(Nc3cc(-c4cccc(N5Cc6cc(C(C)(C)C)ccc6C5=O)c4CO)cn(C)c3=O)nn2)CC1`, 171 to 172 °C; as for `CC(C)(CCc1cc2cc(Cl)ccc2n1S(=O)(=O)c1ccc2ncsc2c1)C(=O)O`, 151 °C. The same measure for `CC(N)(Cc1c[nH]c2ccccc12)C(=O)NCCc1ccccc1` (configuration not stated): 106 to 110 °C; for `O=C(O)c1cc(-n2c(-c3ccccc3)cc3c2Cc2ccccc2-3)ccc1O`: 201 to 205 °C. The same measure for `COC(=O)N1CCN(c2ccc(N3CC(CNC(C)=O)OC3=O)cc2F)CC1` (configuration not stated): 177 to 179 °C; for `Cc1cccc(C)c1N(CCC(C)N1C(=O)c2ccccc2C1=O)S(C)(=O)=O` (configuration not stated): 148 to 152 °C; for `COc1cc(Nc2c(C#N)cnc3cc4cc(OC)c(OCCN5CCN(C)CC5)cc4cc23)c(Cl)cc1C`: 220 to 227 °C. For the molecule `O=C1CC(=O)[C@H](CC2CCCCC2)N1`, the melting point lay in the range of 165 to 167 °C. As for `NCCOc1cccc2c1CC(=O)N2`, the figure is 146 to 148 °C; as for `Fc1cc(F)c2c(Nc3c(Cl)ccc4c3OCO4)ncnc2c1`, 234 to 237 °C; as for `O=C1c2cc3nnn(Cc4ccccn4)c(=O)c3cc2OC2CCCN12` (configuration not stated), 184 to 186 °C. For the molecule `Brc1ccc(OCc2ccc3ccccc3c2)nc1`, the melting point was 83 to 85 °C. Molecule `CC(C)(Cn1c(CO)nc2c(N)nc3ccccc3c21)C(N)=O` came in with a melting point of 201 to 203 °C.

In the case of `CC(=O)c1cccc2c1Cc1ccccc1-2`, the melting point was in the range of 84 to 87 °C.

`CC(C)OC(=O)C1=C(COCCN2C(=O)c3ccccc3C2=O)Nc2c(C#N)cnn2C1c1cccc(F)c1F` (configuration not stated) yielded a melting point of 176 to 177 °C. `O=C1c2ccccc2C(=O)N1CCOc1ccncc1` yielded a melting point of 157 to 158 °C. The same measure for `O=C1Nc2c(F)cccc2C12COc1cc3c(cc12)CCO3` (configuration not stated): greater than 250 °C; for `CCOC(=O)c1cnc2sc3c(n12)CCCCC3`: 73 to 74 °C; for `CN(C)C=CC(=O)c1ccccc1[N+](=O)[O-]`: 118 to 121 °C. The same measure for `N#Cc1cc(C2=Nc3cc(O)c(-c4ccccc4F)cc3NC(=O)C2)ccn1`: greater than 250 °C; for `CS(=O)(=O)c1ccc(C(=O)Nc2ccc(-n3nc(C4CC4)cc3C3CC3)cc2)cc1`: 171 to 176 °C. The same measure for `C/C(=C(\C#N)C(=S)/N=C/N(C)C)N1CCCN(c2ccc(Cl)cc2)CC1`: 259 to 264 °C. `CC(C)c1ccc(-c2c(Cl)c(CN3C(=O)CCC3=O)nc3sc4c(c23)CCN(Cc2ccccc2)C4)cc1` showed a melting point of 201 to 202 °C. As for `O=C(c1ncccc1OC1SCC(O)C(O)C1O)N1CCCCC1` (configuration not stated), the figure is 81 to 92 °C; as for `COc1cc2c(cc1OC)CC(NC(=O)C1CCCN1)CC2` (configuration not stated), 108 to 109 °C; as for `C=CCNc1ncnc2c1ncn2Cc1c(F)cccc1Cl`, 163 to 164 °C. The same measure for `CN(C(=O)c1cc(=O)n(C)c2ccc(C(=O)c3ccc(Cl)cc3)cc12)c1cccc(Cl)c1`: 184 °C; for `CC(C)(C)OC(=O)CNC(=O)C(=O)c1cn(Cc2ccccc2)c2ccc(-c3ccc(OC(F)(F)F)cc3)cc12`: 167 to 168 °C; for `COc1ccc2c(c1)c(CC(=O)N(C(=O)NC1CCCCC1)C1CCCCC1)c(C)n2-c1ncnc2cc(Cl)ccc12`: 105 to 107 °C. The same measure for `C[C@H](NS(=O)(=O)c1ccc2ccccc2c1)C(=O)Cl`: 134 to 136 °C.

`CCOC(=O)CC(C)(O)c1ccc(C2CCCCC2)cc1` (configuration not stated) returned a melting point of 45 °C.

Turning to `O=c1ccc2cccc(Oc3cc(-c4ccc(C(F)(F)F)cc4)ncn3)c2[nH]1`, the melting point came out at 312 °C. The same measure for `O=Cc1cn(CCCCO)c2ncccc12`: 90 °C; for `O=c1c2ccccc2nc(-c2sc(Nc3ccc(Cl)cc3)nc2-c2ccccc2)n1-c1ccccc1`: greater than 275 °C. `CC(C)(C)NC(=O)NC(Cc1ccccc1)C(O)C(O)C(Cc1ccccc1)NC(=O)NC(C)(C)C` (configuration not stated): the melting point lay within 193 to 196 °C.

Turning to `O=C(O)C(Cc1ccccc1)C(=O)N[C@H](CO)Cc1c[nH]c2ccccc12` (some centres not stated), the melting point is 130 to 131 °C. The same measure for `CCOC(=O)/C=C/c1ccccc1C1C(C(=O)OCC)=C(C)NC(C)=C1C(=O)OCC`: 130 to 131 °C. The same measure for `O=C(NC(=O)c1cccs1)NC1CCNC(Cc2ccc3ccccc3c2)C1` (configuration not stated): 217 to 219 °C; for `COC(=O)c1ccc(CNS(C)(=O)=O)cc1S(=O)(=O)Cl`: 93 to 94 °C; for `CC(C)(C#N)c1cc(O)cc2cc(-c3ccc(O)cc3)oc12`: 284 °C. `O=c1n(CCC#Cc2ccccn2)nc2ccccn12` showed a melting point of 95.5 to 96 °C. The same measure for `O=Cc1ccccc1OC(=O)C(=O)Oc1ccccc1C=O`: 134 to 135 °C; for `CC(=O)Nc1nc2c(Oc3cc(-c4ccc(C(F)(F)F)cc4NC(=O)CC4CCCCC4)ncn3)cccc2s1`: 288 to 289 °C; for `Cc1cc(OCc2ccccc2)cc(OCc2cccc(OCc3ccc4ccccc4n3)c2)c1C(=O)O`: 146 to 149 °C. As for `CCN(CC)CCOCCC1CCN(C(=O)N2c3ccccc3C(=O)Nc3cccnc32)CC1`, the figure is 119 to 120 °C; as for `Cc1nc(-c2cnn(-c3c(Cl)cc(C(F)(F)F)cc3Cl)n2)[nH]c1[N+](=O)[O-]`, 231 to 232 °C; as for `CNC(=O)c1cc(Cl)cc(C)c1NC(=O)c1cc(Br)nn1-c1ncccc1Cl`, 162 to 164 °C. As for `O=[N+]([O-])c1cn(-c2cccnc2)nc1-c1ccccc1`, the figure is 144 to 146 °C.

Molecule `COCCCNC(=O)NC(=O)C(C#N)=NO` returned a melting point of 126 to 127 °C. As for `COc1ccc2[nH]c(C(=O)c3ccccc3)c(NC(C)=O)c2c1`, the figure is 258 to 260 °C; as for `CC(=O)Nc1ccc(C=Cc2cc(=O)cc(-c3ccccc3)o2)cc1`, 271 to 272 °C; as for `Cc1ccc(NC(=O)c2c(Cl)cccc2Cl)c2nccc(-n3ccnc3)c12`, 236 °C.

On to `COc1cccc(CCC(c2ccccc2)C(O)c2ccc(O)cc2)c1` (configuration not stated), for which the melting point is 100 to 103 °C.

Consider `CCc1[nH]c(=O)[nH]c(=O)c1N1CCN(Cc2ccccc2)CC1`, for which the melting point lay within 255 to 256 °C. The same measure for `Cc1nn(C)c(-c2ccc(F)cc2)c1C=O`: 130 to 131 °C; for `O=C(O)CNC(=Nc1ccc(C(=O)O)cc1)NCC1CCCCC1`: 164 °C. Consider `Cc1cc(-c2ccc(Cl)cc2)nc2c(C(=O)O)cnn12`, for which the melting point lay in the range of 233 to 235 °C. Regarding `O=C1CCC(N2Cc3c(OCc4ccc5ncccc5c4)cccc3C2=O)C(=O)N1` (configuration not stated), the melting point was in the range of 267 to 269 °C.

The molecule `CCCOC(=O)c1cn(C2CC2)c2nc(N3CCC(N)C3)c(F)cc2c1=O` (configuration not stated) displayed a melting point of 125 to 126 °C. In turn, `Clc1ccc(Oc2nc(Cl)nc(Cl)n2)c(Cl)c1` came in with a melting point of 120 to 122 °C. The same measure for `O=c1c(Cl)c(C(F)(F)F)nc(Nc2cc(C(F)(F)F)ccc2C(F)(F)F)n1C1CCCCC1`: 181 to 183 °C.

The values above are taken from a melting point compilation (Tetko et al.; mined from patent text by program, amines drawn as free bases though some values may be those of a salt).
